Data from patent US11607384B2, “Lipid emulsified drug delivery systems for chemoprevention and treatment” (WESTERN UNIVERSITY OF HEALTH SCIENCES, priority 2017, dated 2023).

Legend:
[1] = system: Panc-1 pancreatic cancer cells; assay: Colorimetric MTS cytotoxicity assay in Panc-1 cells; assay type: cell-based, Human; settings: Panc-1, 72 h
Description: (§1) Human PC cells MIA PaCa-2 and Panc-1 were obtained from American type culture collection (ATCC) (Rockville, Md.). Cells were maintained in Dulbecco's modified Eagle's medium (DMEM) containing 10% fetal bovine serum (FBS) obtained from ATCC. Cells were cultured at 37° C. in a humidified atmosphere of 5% CO2 and 95% air.
(§2) The cell viability assay was performed according to manufacturer's protocol with the Promega CellTitre 96 Aqueous MTS reagent (Madison, Wis., USA). Briefly, 7.5×10^3 cells were seeded in 96-well plates and incubated overnight. […] At the end of the incubation period, the growth medium was removed followed by addition of 100 μl media consisting of 20% MTS and 1% of phenazine methosulfate (PMS) and the mixture was incubated for 2 h at 37° C. MTS is bio-reduced by the cells into formazan which could be measured using a microplate reader at 490 nm. Thus, the quantity of formazan product measured by absorbance is directly proportional to the number of living cells in culture. IC50 values were determined using Graph Pad Prism software (San Diego, Calif., USA). All analysis was performed in triplicate and replicated.
(§3) The cytotoxicity of the various treatment groups were evaluated using a colorimetric MTS assay. The cell viability assay was performed according to the manufacturer's protocol with the Promega CellTitre 96 Aqueous MTS reagent (Madison, Wis., USA). Briefly, 7.5×10^3 cells were seeded in 96-well plates and were incubated overnight. The cells were treated with different concentrations of treatment groups followed by incubation for a period of 72 hours. At the end of the incubation period, the growth medium was removed followed by addition of 100 μl media consisting of 20% MTS and 1% of phenazine methosulfate (PMS) and the mixture was incubated for 2 h at 37° C. MTS is bio-reduced by the cells into formazan which could be measured using a microplate reader at 490 nm. Thus, the quantity of formazan measured by the absorbance is directly proportional to the number of living cells in culture.
The cell viability assay was performed according to the manufacturer's protocol with the Promega Cell Titre 96 Aqueous MTS reagent (Madison, Wis., USA). Briefly, 7.5×10^3 cells were seeded in 96-well plates and were incubated overnight. The cells were treated with different concentrations of treatment groups followed by incubation for a period of 72 h. At the end of the incubation period, the growth medium was removed followed by addition of 100 μl media consisting of 20% MTS and 1% of phenazine methosulfate (PMS) and the mixture was incubated for 2 h at 37° C. MTS is bio-reduced by the cells into formazan which could be measured using a microplate reader at 490 nm. Thus, the quantity of formazan measured by the absorbance is directly proportional to the number of living cells in culture.
A study to determine IC50 in in vitro cell line cultures of pancreatic cancer cell lines was performed. […] Cytotoxicity was evaluated using the colorometric MTS assay. […] MTS is bio-reduced by the cells into formazan which could be measured using a microplate reader at 490 nm. Thus, the quantity of formazan measured by the absorbance is directly proportional to the number of living cells in culture.
A study to determine IC50 in in vitro cell line cultures of pancreatic cancer cell lines was performed. […] Cytotoxicity was evaluated using the colorometric MTS assay.

[2] = system: MIA-PaCa-2 pancreatic cancer cells; assay: Colorimetric MTS cytotoxicity assay in MIA-PaCa-2 cells; assay type: cell-based, Human; settings: for IC50: MIA-PaCa-2, 72 h
Description: as §1, §2
A study to determine IC50 (inhibitory concentration to kill 50% of cancer cells) in in vitro cell line cultures of pancreatic cancer cell line was performed.
The cell viability assay was performed according to the manufacturer's protocol with the Promega CellTitre 96 Aqueous MTS reagent (Madison, Wis., USA). Briefly, 7.5×10^3 cells were seeded in 96-well plates and were incubated overnight. The cells were treated with different concentrations of treatment groups followed by incubation for a period of 72 hours. At the end of the incubation period, the growth medium was removed followed by addition of 100 μl media consisting of 20% MTS and 1% of phenazine methosulfate (PMS) and the mixture was incubated for 2 h at 37° C. MTS is bio-reduced by the cells into formazan which could be measured using a microplate reader at 490 nm. Thus, the quantity of formazan measured by the absorbance is directly proportional to the number of living cells in culture. […] All analysis was performed in triplicate.
as §3
Cytotoxicity was evaluated in Mia PaCa 2 pancreatic cancer cells using the colorimetric MTS assay, as described above.
A study to determine IC50 in in vitro cell line cultures of pancreatic cancer cell lines was performed. […] Cytotoxicity was evaluated using the colorometric MTS assay. The cell viability assay was performed according to the manufacturer's protocol with the Promega Cell Titre 96 Aqueous MTS reagent (Madison, Wis., USA). Briefly, 7.5×10^6 cells were seeded in 96-well plates and were incubated overnight. The cells were treated with different concentrations of treatment groups followed by incubation for a period of 72 h.

Question: For `Nc1ccn([C@@H]2O[C@H](CO)[C@@H](O)C2(F)F)c(=O)n1` [Gemcitabine], which IC50 ([1]; Homo sapiens, Table 16, varied Gemcitabine, fixed LOR (free or system 2) 125 μM, Sulforaphane 5 μM) is on record?
Answer: 539 µM

Question: And the IC50 ([2]; Homo sapiens, Table 14, varied Gemcitabine, fixed LOR (free or system 2) 125 μM, Sulforaphane 5 μM)?
Answer: 692 µM

Question: What does the source list for `CCOC(=O)N1CCC(=C2c3ccc(Cl)cc3CCc3cccnc32)CC1` [LOR (free), Loratadine]?
Answer: IC50 ([1]; Homo sapiens, Table 9, MTS): 357 µM; IC50 ([2]; Homo sapiens, Table 4, MTS): 326 µM

Question: For `CC(=O)O[C@H]1C(=O)[C@@]2(C)[C@H]([C@H](OC(=O)c3ccccc3)[C@]3(O)C[C@H](OC(=O)[C@H](O)[C@@H](NC(=O)c4ccccc4)c4ccccc4)C(C)=C1C3(C)C)[C@]1(OC(C)=O)CO[C@@H]1C[C@@H]2O` [Paclitaxel], which IC50 ([1]; Homo sapiens, Table 20, varied Paclitaxel, fixed LOR (free or system 2) 125 μM, Sulforaphane 5 μM) is on record?
Answer: 2.33 µM

Question: What about the IC50 ([2]; Homo sapiens, Table 18, varied Paclitaxel, fixed LOR (free or system 2) 125 μM, Sulforaphane 5 μM) of the same molecule?
Answer: 1.96 µM

Question: Which IC50 ([1]; Table 10, MTS, LOR alone or in combination with free Sulforaphane) does the source give for `C[S+]([O-])CCCCN=C=S` (centres unmarked) [Sulforaphane (free), Sulforaphane] here?
Answer: 99.6 µM

Question: And the IC50 ([1]; Table 11, MTS, DES alone or in combination with free Sulforaphane)?
Answer: 99.6 µM

Question: And the cell inhibition ([2]; Mia PaCa 2, at the concentration of 5 μM)?
Answer: did not show any significant cell inhibition

Question: And the IC50 ([2]; Table 5, MTS, combinations with fixed free Sulforaphane 5 μM)?
Answer: 92.2 µM

Question: What about the IC50 ([2]; Table 6, MTS, combinations with fixed free Sulforaphane 5 μM) of the same molecule?
Answer: 92.2 µM
